Results reported in patent publication US11529343B2, “Compositions and methods for identifying and treating dystonia disorders” (DUKE UNIVERSITY, priority 2015, dated 2022).
Peptide text beside a SMILES is read from it. * marks the point of attachment. Cbz = O=C(OCc1ccccc1)*

Experiments:
[1] = test system: delta-E Torsin1a localization; assay: Delta-E Torsin1a mislocalization assay (% cells with EGFP puncta, high-content imaging); type: cell-based, human; details: single concentration: MG132 10 μM, PBA 20 mM
WT Torsin1a localization = assay: Torsin1a localization assay in WT Torsin1a-expressing assay cell line; type: cell-based, human; details: for percentage of cells with punctate EGFP-Torsin1a signal, WT cell line: single concentration: MG132 10 μM, PBA 20 mM
Text: To develop an assay capable of detecting conditions that correct a dystonia cellular phenotype, two human cell lines were generated that stably expressed EGFP-tagged human wild-type Torsin 1A, or delta-E Torsin1a, from a single cDNA copy integrated at a defined genomic site (FIG. 1, panel 1).
To limit variation in expression levels associated with random integration or transient expression, single copies of either WT or delta-E human TOR1A cDNAs with N-terminal EGFP fusions were inserted at the FRT site in Flp-In™ T-Rex™ 293 cells (Thermo Fisher Scientific #R780-07) via flippase recombinase-mediated cassette exchange according to the manufacturer's recommended protocols. This system includes an inducible expression feature (TetON) that avoids selective pressure for potential toxic effects of chronic expression of mutant proteins (FIG. 1, panel 1).
Flp-In T-Rex 293 cells inducibly expressing either WT or delta-E Torsin1a were maintained in selective media [DMEM-HG (Thermo Fisher Scientific #11965)+1× GlutaMax (Thermo Fisher Scientific #35050-061)+75 μg/mL hygromycin (Thermo Fisher Scientific #10687-010)+15 μg/mL blasticidin S (Thermo Fisher Scientific #R210-01)+10% tetracycline screened FBS (Hyclone #SH30070.03T)+1% penicillin/streptomycin/amphotericin (Mediatech Inc. #30-004-C)]. The cells were maintained at 37° C./5% CO2. All experiments were performed on cells with fewer than 5 passages. HEK 293T cells (ATCC #CRL-3216) were maintained in HEK-T media [DMEM (Thermo Fisher #11995)+10% FBS (Hyclone #SH30070.03)+1× GlutaMAX+1% penicillin/streptomycin/amphotericin] at 37° C./5% CO2. Human dermal fibroblast lines were maintained in FGM media [MEM (Thermo Fisher #11095-080)+15% FBS (Hyclone #SH30070.03)+1% Non-Essential Amino Acids (Lonza #13-114E)+1% penicillin/streptomycin/amphotericin] at 37° C./5% CO2.
This approach provides control over expression levels, avoiding the wide variation typically seen with random genomic integration or transient expression approaches. […] The mutant phenotype was measured as the percentage of cells with one or more EGFP puncta using automated high-content imaging analysis (see infra).
Development and validation of the high-content image analysis and assay performance under high-throughput screening conditions is presented in FIG. 9. […] Automated exposure times for each plate were determined by setting a target saturation of 25% in channel 1 in wells containing tetracycline-induced delta-E cells. Detected cells were gated according to nuclear area, length-to-width ratio, and perimeter-to-area ratio. […] EGFP fluorescence (Ch2: excitation 488 nm; emission 509 nm) was used for puncta detection. Automated exposure times for each plate were determined by setting a target saturation of 35% in channel 2 in wells containing induced delta-E cells. […]

striatal mGluR5 LTD [2] = assay: Long-term depression in cortico-striatal synapse, acute brain slices of WT mice; type: cell-based; details: pre-incubation 5 nM, 1 hr
Protocol: (§1) To directly test these predictions, whole-cell electrophysiology of striatal projection neurons was performed in acute brain slices to induce long-term depression in the presence of eIF2-alpha pathway-modulating drugs. Acute horizontal brain slices from the progeny of heterozygous ΔE Torsin1a knockin x homozygous Drd1a-tdTomato mice (age P15-21) were prepared largely as described in (Trusel et al., 2015, Cell Rep. 13, 1353-65). LTD was induced as in Trusel et al., 2015, with modifications.
(§2) Heterozygous delGAG Torsin1a knockin mice (courtesy of Dr. W. Dauer, University of Michigan) were crossed with homozygous Drd1a-tdTomato mice (Jackson Labs) and the progeny was used at postnatal day 15-21 for experiments. […]
(§3) Single slices were transferred to a recording chamber and superfused continuously with ACSF containing 50 μM picrotoxin at 32° C. and 3-4 mL/min. […] Evoked excitatory postsynaptic potentials (EPSPs) were recorded in the dorsolateral striatum, while stimulating every 30 seconds with a concentric bipolar electrode (FHC) in cortical layer V (see Trusel et al., Cell Reports, 2015). […] Baseline EPSPs were recorded for at least 10 min or until a stable baseline was reached. Data were acquired by pClamp v10 and analyzed using Clampfit v10.4, Origin v8.0, and GraphPad Prism v6.

striatal mGluR5 LTD [3] = assay: Long-term depression in cortico-striatal synapse, brain slices of heterozygous DYT1 knockin mice; type: cell-based; details: 20 μM, versus vehicle
Protocol: as §1, §2, §3

Compound	percentage of cells with punctate EGFP-Torsin1a signal, delta-E cell line [1]	percentage of cells with punctate EGFP-Torsin1a signal, WT cell line (WT Torsin1a localization)	further results
CC(C)C[C@@H](C=O)NC(=O)[C@H](CC(C)C)NC(=O)[C@H](CC(C)C)NC(=O)OCc1ccccc1 [MG132] (Cbz-Leu-Leu-Leu-aldehyde)	significantly increased	significantly increased	
O=C(COc1ccc(Cl)cc1)NC1CCC(NC(=O)COc2ccc(Cl)cc2)CC1 (centres unmarked) [ISRIB]			effect on LTD in WT brain slices (striatal mGluR5 LTD [2]): robustly inhibited LTD; Torsin1a expression levels, in words (WT Torsin1a localization; WT cell line): without effects on Torsin1a expression levels; effect on WT Torsin1a localization (cells with puncta), in words (WT Torsin1a localization; dose response, WT cell line): dose-dependent increase in cells with punctate Torsin1a localization
O=C(/C=C/c1ccccc1)NC(NC(=S)Nc1ccc(Cl)cc1)C(Cl)(Cl)Cl (centres unmarked) [Sal-003]			effect on LTD in brain slices heterozygous for the DYT1 knockin mutation (delGAG) (striatal mGluR5 LTD [3]): restored long-term depression
O=C(O)CCCc1ccccc1 [PBA, phenylbutyric acid]	ameliorated the burden of cells with punctate pathology	ameliorated the burden of cells with punctate pathology	
